From patent US10704024B2, “Method for producing mesenchymal cells with promoted c-MPL receptor expression on cell surface” (AdipoSeeds, Inc., priority 2015, dated 2020)

Legend:
[1] = system: Human primary culture preadipocytes (HPAd); assay: Culture of preadipocytes in basic medium with TPO; c-MPL receptor positive cells by flow cytometry and immunostaining; type: cell-based
Description: In order to check whether expression of a c-MPL receptor on a cell surface of a mesenchymal cell is promoted or not, the following culture experiment was carried out by culturing mesenchymal cells in a mesenchymal cell culturing basic medium comprising a c-MPL receptor active substance. Note that, in the culture experiment, preadipocytes were used as the mesenchymal cells.
Human primary culture preadipocytes (Human Preadipocytes: HPAd) manufactured by CELL APPLICATIONS were prepared. A culture dish was coated with collagen and then a culture medium was added to the dish. As the culture medium, DMEM medium (Dulbecco's Modified Eagle's Medium, manufactured by Life Technology Co.), to which a 10% fetal bovine serum (manufactured by Sigma), a 1% non-essential amino acid(s) (manufactured by Life Technology Co.), a 100 U/mL penicillin-streptomycin solution (manufactured by Life Technology Co.) and 50 ng/mL recombinant human TPO (manufactured by R&D Systems) were added, was used. The preadipocytes were cultured in the culture medium at 37° C. for 3 days. […] The preadipocytes (hereinafter referred to as “the cell population of preadipocytes (TPO+)”) were labeled with a fluorescence-labeled anti c-MPL antibody (manufactured by BD Bioscience), and fluorescence was measured by flow cytometry. When the ratio of c-MPL receptor positive cells was determined in this manner, the ratio was 3.68±0.39%. Note that, the cell population of preadipocytes (TPO+) was immuno-stained with a “fluorescence-labeled anti c-MPL antibody” and “DAPI (4′,6-diamidino-2-phenylindole)”. In the right panel, cells emitting fluorescence derived from the fluorescence-labeled anti c-MPL antibody are observed around the circular fluorescence emitted from nuclei stained with DAPI.
In contrast, the preadipocytes (hereinafter referred to as “cell population of preadipocytes (TPO−)”) were cultured in the same method except that recombinant human TPO was not added to a culture medium. When the ratio of the c-MPL receptor positive cells was determined by flow cytometry, the ratio was 0.67±0.12%. […]

[2] = system: cell population of preadipocytes (TPO+); assay: Differentiation induction of preadipocytes into megakaryocytes/platelets in MKLI medium; CD41 positive cells by flow cytometry; type: cell-based, human
Description: In order to check whether “cell population of preadipocytes (TPO+)” obtained in Example 1 can be actually used for efficient production of megakaryocytes/platelets (megakaryocyte and/or platelet), differentiation of preadipocytes into megakaryocyte/platelets was induced in accordance with the method described in Patent Document 1.
A culture dish was coated with collagen and then a culture medium was added to the dish. As the culture medium, MKLI medium (megakaryocyte lineage induction medium) known as a medium which can induce differentiation of hematopoietic stem cells into megakaryocytes/platelets, was used. […]
The “cell population of preadipocytes (TPO+)” obtained in Example 1 was cultured in MKLI medium as mentioned above at 37° C. and in the conditions of a CO2 concentration of 5% for 7 days. After culture, the cell population was separately taken and the ratio (%) of CD41 (specific marker of megakaryocytes or platelets) positive cells in the cell population was determined. […]
In contrast, the ratio of CD41 positive cells in the “cell population of preadipocytes (TPO−)” obtained in Example 1 was determined by flow cytometry. […]

CMK cells [3] = settings: luciferase gene ligated downstream of the promoter; cited from earlier work
CMK cells [4] = settings: cited from earlier work

thrombopoietin [TPO]
ratio of c-MPL receptor positive cells ([1]; 50 ng/mL recombinant human TPO, 37° C., 3 days, fluorescence-labeled anti c-MPL antibody, flow cytometry): 3.68±0.39% | increase of the ratio of c-MPL receptor positive cells relative to the case where TPO is not added ([1]; TPO added to culture medium vs not added): about 5.5 time | c-MPL receptor positive cells by immunostaining (FIG. 1, right panel) ([1]; TPO added, 3 days, fluorescence-labeled anti c-MPL antibody and DAPI): a large number of the cells, i.e., c-MPL receptor positive cells are present | number of megakaryocytes/platelets produced relative to preadipocytes cultured in medium not comprising recombinant TPO ([2]; TPO+ vs TPO− preadipocytes): about 1.7 times | ratio of CD41 positive cells in the cell population ([2]; preadipocytes pre-cultured with TPO, then MKLI medium 37° C., 5% CO2, 7 days, FITC-labeled anti CD41 antibody, flow cytometry): 28.5±2.1% | activity of the promotor of a c-MPL receptor gene (CMK cells [3]): induced | expression of a c-MPL receptor on the surface of CMK cells (CMK cells [4]): reduces expression
